# Experimental data as given in publication PMC5218480 (PLoS ONE, 2017).
# Tested on: MV-4-11 cells
# Assay: Gene expression microarray analysis (Affymetrix PrimeView) and GSEA
# Assay type: cell-based, human
# Parameters: RFU PODN (11730768_x_at) / Fold change /veh PODN (11730768_x_at) / RFU LINC00158 (11744669_a_at) / Fold change /veh LINC00158 (11744669_a_at) / RFU DUSP10 (11751237_a_at) / Fold change /veh DUSP10 (11751237_a_at) / RFU ID3 (11757404_x_at) / Fold change /veh ID3 (11757404_x_at) / RFU PLEKHG5 (11737974_s_at) / Fold change /veh PLEKHG5 (11737974_s_at) / RFU LRRC4B (11730491_at) / Fold change /veh LRRC4B (11730491_at) / RFU GIMAP4 (11747438_a_at) / Fold change /veh GIMAP4 (11747438_a_at) / RFU KRT8 (11758183_x_at) / Fold change /veh KRT8 (11758183_x_at) / RFU CNN1 (11734310_a_at) / Fold change /veh CNN1 (11734310_a_at) / RFU VPS37D (11726825_at) / Fold change /veh VPS37D (11726825_at) / RFU C10orf10 (11716522_x_at) / Fold change /veh C10orf10 (11716522_x_at) / RFU KIR2DL2 /// KIR2DL4 /// KIR2DL5A /// KIR2DL5B /// KIR2DS1 /// KIR2DS2 /// KIR2DS3 /// KIR2DS4 /// KIR3DL3 /// KIR3DL3 /// KIR3DS1 (11738374_at) / Fold change /veh KIR2DL2 /// KIR2DL4 /// KIR2DL5A /// KIR2DL5B /// KIR2DS1 /// KIR2DS2 /// KIR2DS3 /// KIR2DS4 /// KIR3DL3 /// KIR3DL3 /// KIR3DS1 (11738374_at) / RFU C1QL1 (11718748_at) / Fold change /veh C1QL1 (11718748_at) / RFU TMPRSS4 (11747572_a_at) / Fold change /veh TMPRSS4 (11747572_a_at) / RFU HAMP (11756126_x_at) / Fold change /veh HAMP (11756126_x_at) / RFU RNFT2 (11725882_a_at) / Fold change /veh RNFT2 (11725882_a_at) / RFU NR4A2 (11747474_a_at) / Fold change /veh NR4A2 (11747474_a_at) / RFU ABCC12 (11746883_a_at) / Fold change /veh ABCC12 (11746883_a_at) / RFU TMEM136 (11760407_x_at) / Fold change /veh TMEM136 (11760407_x_at) / RFU CLDN22 /// WWC2 (11732394_at) / Fold change /veh CLDN22 /// WWC2 (11732394_at) / RFU HLA-DPB1 (11760878_x_at) / Fold change /veh HLA-DPB1 (11760878_x_at) / RFU SPINT1 (11716480_a_at) / Fold change /veh SPINT1 (11716480_a_at) / RFU GAP43 (11754022_s_at) / Fold change /veh GAP43 (11754022_s_at) / RFU A4GNT (11735810_at) / Fold change /veh A4GNT (11735810_at) / RFU PRB3 (11715151_x_at) / Fold change /veh PRB3 (11715151_x_at) / RFU TUBB4B (11761932_at) / Fold change /veh TUBB4B (11761932_at) / RFU CAPN14 (11732068_a_at) / Fold change /veh CAPN14 (11732068_a_at) / RFU TMCC2 (11721928_a_at) / Fold change /veh TMCC2 (11721928_a_at) / RFU IRGQ (11745062_a_at) / Fold change /veh IRGQ (11745062_a_at) / RFU FAM174B (11720279_a_at) / Fold change /veh FAM174B (11720279_a_at) / RFU TMPRSS4 (11748680_a_at) / Fold change /veh TMPRSS4 (11748680_a_at) / RFU FAM212B (11763350_a_at) / Fold change /veh FAM212B (11763350_a_at) / RFU PLEKHG5 (11743358_a_at) / Fold change /veh PLEKHG5 (11743358_a_at) / RFU ZSCAN30 (11745921_a_at) / Fold change /veh ZSCAN30 (11745921_a_at) / RFU CMKLR1 (11741424_a_at) / Fold change /veh CMKLR1 (11741424_a_at) / RFU LOC101060620 /// MAPK8IP1 (11723275_at) / Fold change /veh LOC101060620 /// MAPK8IP1 (11723275_at) / RFU SPTSSB (11747773_x_at) / Fold change /veh SPTSSB (11747773_x_at) / RFU PRSS12 (11739890_at) / Fold change /veh PRSS12 (11739890_at) / RFU BIN1 (11741810_x_at) / Fold change /veh BIN1 (11741810_x_at) / RFU WNT11 (11732464_a_at) / Fold change /veh WNT11 (11732464_a_at) / RFU C10orf10 (11716521_a_at) / Fold change /veh C10orf10 (11716521_a_at) / RFU C5orf56 (11738089_at) / Fold change /veh C5orf56 (11738089_at) / RFU CYB561 (11721691_x_at) / Fold change /veh CYB561 (11721691_x_at) / RFU ANKRD19P (11752326_a_at) / Fold change /veh ANKRD19P (11752326_a_at) / RFU OR2T12 /// OR2T33 /// OR2T8 (11738714_s_at) / Fold change /veh OR2T12 /// OR2T33 /// OR2T8 (11738714_s_at) / RFU VCAN (11748164_a_at) / Fold change /veh VCAN (11748164_a_at) / RFU JSRP1 (11732532_at) / Fold change /veh JSRP1 (11732532_at) / RFU KRTAP10-11 (11738290_x_at) / Fold change /veh KRTAP10-11 (11738290_x_at) / RFU MYO3A (11730013_a_at) / Fold change /veh MYO3A (11730013_a_at) / RFU EBF3 (11725865_a_at) / Fold change /veh EBF3 (11725865_a_at) / RFU CAMK2N1 (11719241_x_at) / Fold change /veh CAMK2N1 (11719241_x_at) / RFU C5orf56 (11738088_a_at) / Fold change /veh C5orf56 (11738088_a_at) / RFU OLFML3 (11715873_a_at) / Fold change /veh OLFML3 (11715873_a_at) / RFU LOC100653217 /// NTM (11731650_a_at) / Fold change /veh LOC100653217 /// NTM (11731650_a_at) / RFU MAPK11 (11762145_a_at) / Fold change /veh MAPK11 (11762145_a_at) / RFU FIZ1 (11724087_x_at) / Fold change /veh FIZ1 (11724087_x_at) / RFU OASL (11726364_x_at) / Fold change /veh OASL (11726364_x_at) / RFU SOX15 (11748057_x_at) / Fold change /veh SOX15 (11748057_x_at) / RFU CD79A (11719716_a_at) / Fold change /veh CD79A (11719716_a_at) / RFU HIST1H1D (11736915_at) / Fold change /veh HIST1H1D (11736915_at) / RFU CASKIN2 (11723855_a_at) / Fold change /veh CASKIN2 (11723855_a_at) / RFU LOC730098 (11760151_x_at) / Fold change /veh LOC730098 (11760151_x_at) / RFU OR4N2 (11742367_at) / Fold change /veh OR4N2 (11742367_at) / RFU PRRT2 (11749266_a_at) / Fold change /veh PRRT2 (11749266_a_at) / RFU SNX32 (11753110_a_at) / Fold change /veh SNX32 (11753110_a_at) / RFU CDHR5 (11726645_a_at) / Fold change /veh CDHR5 (11726645_a_at) / RFU RCAN1 (11760418_a_at) / Fold change /veh RCAN1 (11760418_a_at) / RFU FAM167A (11723789_a_at) / Fold change /veh FAM167A (11723789_a_at) / RFU FAM26E (11764081_at) / Fold change /veh FAM26E (11764081_at) / RFU ISYNA1 (11749810_s_at) / Fold change /veh ISYNA1 (11749810_s_at) / RFU ACY1 (11761880_at) / Fold change /veh ACY1 (11761880_at) / RFU 11764098_at / Fold change /veh 11764098_at / RFU SAMD14 (11745864_x_at) / Fold change /veh SAMD14 (11745864_x_at) / RFU NPB (11741838_a_at) / Fold change /veh NPB (11741838_a_at) / RFU TMPRSS6 (11731388_a_at) / Fold change /veh TMPRSS6 (11731388_a_at) / RFU KRTAP10-2 (11738614_at) / Fold change /veh KRTAP10-2 (11738614_at) / RFU ARHGAP8 /// PRR5-ARHGAP8 (11727945_x_at) / Fold change /veh ARHGAP8 /// PRR5-ARHGAP8 (11727945_x_at) / RFU KRTAP5-7 /// NADSYN1 (11734609_at) / Fold change /veh KRTAP5-7 /// NADSYN1 (11734609_at) / RFU RASL12 (11751679_a_at) / Fold change /veh RASL12 (11751679_a_at) / RFU CDKN2B (11736163_a_at) / Fold change /veh CDKN2B (11736163_a_at) / RFU PRF1 (11729649_at) / Fold change /veh PRF1 (11729649_at) / RFU, ZNF638 /// ZNF638-IT1 / Fold change vs veh, ZNF638 /// ZNF638-IT1 / RFU, PANK3 / Fold change vs veh, PANK3 / RFU, SH3YL1 / Fold change vs veh, SH3YL1 / RFU, ZEB2 / Fold change vs veh, ZEB2 / RFU, NRIP1 / Fold change vs veh, NRIP1 / RFU, PTTG1IP / Fold change vs veh, PTTG1IP / RFU, CAPN2 / Fold change vs veh, CAPN2 / RFU, MED14 / Fold change vs veh, MED14 / RFU, SNORA58 / Fold change vs veh, SNORA58 / RFU, C1orf63 / Fold change vs veh, C1orf63 / RFU, LRRFIP1 / Fold change vs veh, LRRFIP1 / RFU, NDUFAF7 / Fold change vs veh, NDUFAF7 / RFU, SLC12A2 / Fold change vs veh, SLC12A2 / RFU, IBTK / Fold change vs veh, IBTK / RFU, ESF1 / Fold change vs veh, ESF1 / Fold change vs veh, TMEM50B / RFU, TAOK1 / Fold change vs veh, TAOK1 / RFU, ACBD3 / Fold change vs veh, ACBD3 / RFU, TMA16 / Fold change vs veh, TMA16 / RFU, RWDD3 / Fold change vs veh, RWDD3 / RFU, BCAT1 / Fold change vs veh, BCAT1 / RFU, EDEM3 / Fold change vs veh, EDEM3 / RFU, TMEM33 / Fold change vs veh, TMEM33 / RFU, WDR75 / Fold change vs veh, WDR75 / RFU, AHCTF1 / Fold change vs veh, AHCTF1 / RFU, TFRC / Fold change vs veh, TFRC / RFU, ZDHHC17 / Fold change vs veh, ZDHHC17 / RFU, NOM1 / Fold change vs veh, NOM1 / RFU, ARL8B / Fold change vs veh, ARL8B / RFU, ZBTB11 / Fold change vs veh, ZBTB11 / RFU, TAMM41 / Fold change vs veh, TAMM41 / RFU, KIAA1704 /// LOC100996395 / Fold change vs veh, KIAA1704 /// LOC100996395 / RFU, ING1 / Fold change vs veh, ING1 / RFU, TRMT61B / Fold change vs veh, TRMT61B / RFU, FUBP3 / Fold change vs veh, FUBP3 / RFU, TP53 / Fold change vs veh, TP53 / RFU, TNKS2 / Fold change vs veh, TNKS2 / RFU, ZFP14 / Fold change vs veh, ZFP14 / RFU, ACTR2 / Fold change vs veh, ACTR2 / RFU, PPP3R1 / Fold change vs veh, PPP3R1 / RFU, PIK3R1 / Fold change vs veh, PIK3R1 / RFU, HNRNPA1 / Fold change vs veh, HNRNPA1 / RFU, RNF170 / Fold change vs veh, RNF170 / RFU, ZNF28 / Fold change vs veh, ZNF28 / RFU, RNGTT / Fold change vs veh, RNGTT / RFU, OGT / Fold change vs veh, OGT / RFU, BRD1 / Fold change vs veh, BRD1 / RFU, MARS / Fold change vs veh, MARS / RFU, ZNF655 / Fold change vs veh, ZNF655 / RFU, FAHD1 / Fold change vs veh, FAHD1 / RFU, BDP1 / Fold change vs veh, BDP1 / RFU, LRRCC1 / Fold change vs veh, LRRCC1 / RFU, ARID1A / Fold change vs veh, ARID1A / RFU, ZNF146 / Fold change vs veh, ZNF146 / RFU, ZNF330 / Fold change vs veh, ZNF330 / RFU, GPN3 / Fold change vs veh, GPN3 / RFU, C9orf123 / Fold change vs veh, C9orf123 / RFU, N4BP2L2 / Fold change vs veh, N4BP2L2 / RFU, ARFIP1 / Fold change vs veh, ARFIP1 / RFU, FAM179B / Fold change vs veh, FAM179B / RFU, BCL10 / Fold change vs veh, BCL10 / RFU, UHRF1BP1L / Fold change vs veh, UHRF1BP1L / RFU, BET1 / Fold change vs veh, BET1 / RFU, CNOT2 / Fold change vs veh, CNOT2 / RFU, ZNF268 / Fold change vs veh, ZNF268 / Fold change vs veh, ZNF507 / RFU, DGCR2 / Fold change vs veh, DGCR2 / RFU, WDSUB1 / Fold change vs veh, WDSUB1 / Fold change vs veh, HSP90B1 /// MIR3652 / RFU, ADSS / Fold change vs veh, ADSS / RFU, GK / Fold change vs veh, GK / RFU, ZNF148 / Fold change vs veh, ZNF148 / RFU, TAF9 / Fold change vs veh, TAF9 / RFU, SLC1A5 / Fold change vs veh, SLC1A5 / RFU, SLMO2 / Fold change vs veh, SLMO2 / RFU, ABCC4 / Fold change vs veh, ABCC4 / RFU, LOC101060439 /// RAP1B / Fold change vs veh, LOC101060439 /// RAP1B / RFU, RFX7 / Fold change vs veh, RFX7 / RFU, GTPBP10 / Fold change vs veh, GTPBP10 / RFU, CNEP1R1 / Fold change vs veh, CNEP1R1 / RFU, BIVM-ERCC5 /// ERCC5 / Fold change vs veh, BIVM-ERCC5 /// ERCC5 / RFU, ILF3 / Fold change vs veh, ILF3 / RFU 11762660_at / Fold change /veh 11762660_at / RFU VCAN (11757783_s_at) / Fold change /veh VCAN (11757783_s_at) / RFU DDX43 (11728927_at) / Fold change /veh DDX43 (11728927_at) / RFU KRT8 (11758188_x_at) / Fold change /veh KRT8 (11758188_x_at) / RFU NKD1 (11759106_at) / Fold change /veh NKD1 (11759106_at) / RFU SRD5A1 (11742802_a_at) / Fold change /veh SRD5A1 (11742802_a_at) / RFU TPSAB1 /// TPSB2 (11721975_s_at) / Fold change /veh TPSAB1 /// TPSB2 (11721975_s_at) / RFU GSTM3 (11746129_a_at) / Fold change /veh GSTM3 (11746129_a_at) / RFU IL23R (11737362_x_at) / Fold change /veh IL23R (11737362_x_at) / RFU TMEM51 (11727254_a_at) / Fold change /veh TMEM51 (11727254_a_at) / RFU PIWIL2 (11732686_x_at) / Fold change /veh PIWIL2 (11732686_x_at) / RFU ORM1 (11744905_x_at) / Fold change /veh ORM1 (11744905_x_at) / RFU CCDC152 (11743942_at) / Fold change /veh CCDC152 (11743942_at) / RFU ECM1 (11717891_a_at) / Fold change /veh ECM1 (11717891_a_at) / RFU IL23R (11748794_a_at) / Fold change /veh IL23R (11748794_a_at) / RFU TNFAIP8L3 (11732012_x_at) / Fold change /veh TNFAIP8L3 (11732012_x_at) / RFU MBOAT4 (11741988_at) / Fold change /veh MBOAT4 (11741988_at) / RFU 11764193_at / Fold change /veh 11764193_at / RFU TMEM53 (11763286_at) / Fold change /veh TMEM53 (11763286_at) / RFU MAGEB2 (11727129_at) / Fold change /veh MAGEB2 (11727129_at) / RFU TMEM200A (11744735_a_at) / Fold change /veh TMEM200A (11744735_a_at) / RFU CCDC152 (11751479_a_at) / Fold change /veh CCDC152 (11751479_a_at) / RFU FAM211A (11726209_a_at) / Fold change /veh FAM211A (11726209_a_at) / RFU RGS16 (11746705_a_at) / Fold change /veh RGS16 (11746705_a_at) / RFU VCAN (11755009_s_at) / Fold change /veh VCAN (11755009_s_at) / RFU RHOB (11743442_s_at) / Fold change /veh RHOB (11743442_s_at) / RFU RGS16 (11720943_a_at) / Fold change /veh RGS16 (11720943_a_at) / RFU RGS16 (11720944_at) / Fold change /veh RGS16 (11720944_at) / RFU, VPS4B / Fold change vs veh, VPS4B / RFU, CREB1 / Fold change vs veh, CREB1 / RFU, DNAJC13 / Fold change vs veh, DNAJC13 / RFU, GNAQ / Fold change vs veh, GNAQ / RFU, CDK5R1 / Fold change vs veh, CDK5R1 / RFU, ZRANB3 / Fold change vs veh, ZRANB3 / RFU, CUL4A / Fold change vs veh, CUL4A / RFU, CCNY / Fold change vs veh, CCNY / RFU, UFL1 / Fold change vs veh, UFL1 / RFU, COG3 / Fold change vs veh, COG3 / RFU, DIAPH2 / Fold change vs veh, DIAPH2 / RFU, SKA2 / Fold change vs veh, SKA2 / RFU, AFF3 / Fold change vs veh, AFF3 / RFU, LMF1 / Fold change vs veh, LMF1 / RFU, IPO11 / Fold change vs veh, IPO11 / RFU, DFFB / Fold change vs veh, DFFB / RFU, FOXP1 / Fold change vs veh, FOXP1 / RFU, CARD8 / Fold change vs veh, CARD8 / RFU, STRN3 / Fold change vs veh, STRN3 / RFU, ADK / Fold change vs veh, ADK / RFU, RASSF2 / Fold change vs veh, RASSF2 / RFU, WIPF1 / Fold change vs veh, WIPF1 / RFU, LARP1B / Fold change vs veh, LARP1B / RFU, RASA1 / Fold change vs veh, RASA1 / RFU, RB1 / Fold change vs veh, RB1 / RFU, PPFIA1 / Fold change vs veh, PPFIA1 / RFU, MAT2A / Fold change vs veh, MAT2A / RFU, CCT5 / Fold change vs veh, CCT5 / RFU, WDR92 / Fold change vs veh, WDR92 / RFU, CUX1 / Fold change vs veh, CUX1 / RFU, TTC7A / Fold change vs veh, TTC7A / RFU, TMEM135 / Fold change vs veh, TMEM135 / RFU, DEPTOR / Fold change vs veh, DEPTOR / RFU, CPM / Fold change vs veh, CPM / RFU, DNAJB6 / Fold change vs veh, DNAJB6 / RFU, CACNA2D3 / Fold change vs veh, CACNA2D3 / RFU, DTX4 / Fold change vs veh, DTX4 / RFU, TFCP2 / Fold change vs veh, TFCP2 / RFU, GMCL1 /// GMCL1P1 / Fold change vs veh, GMCL1 /// GMCL1P1 / RFU, AEBP2 / Fold change vs veh, AEBP2 / RFU, SNHG1 /// SNORD22 /// SNORD25 /// SNORD26 /// SNORD27 /// SNORD28 /// SNORD29 /// SNORD31 / Fold change vs veh, SNHG1 /// SNORD22 /// SNORD25 /// SNORD26 /// SNORD27 /// SNORD28 /// SNORD29 /// SNORD31 / Fold change (Aza/veh), C12orf56 (ProbeSet 11735607_a_at) / Fold change (ACY-1035/veh), C12orf56 (ProbeSet 11735607_a_at) / Fold change (Aza/veh), FGFR1OP (ProbeSet 11751329_s_at) / Fold change (ACY-1035/veh), FGFR1OP (ProbeSet 11751329_s_at) / Fold change (Aza/veh), VPS36 (ProbeSet 11739960_a_at) / Fold change (ACY-1035/veh), VPS36 (ProbeSet 11739960_a_at) / RFU SYPL1 (11715823_x_at) / Fold change /veh SYPL1 (11715823_x_at) / RFU IGFBP7 (11715501_s_at) / Fold change /veh IGFBP7 (11715501_s_at) / RFU REEP3 (11722064_at) / Fold change /veh REEP3 (11722064_at) / RFU IGLL1 (11728026_x_at) / Fold change /veh IGLL1 (11728026_x_at): dose or concentration left out as unconfirmed
# Conditions: MV-4-11 cells, 48 hours
structure (smiles),measurement,value
Nc1ccc(-c2cccs2)cc1NC(=O)c1ccc2c(c1)cc(C1CC1)n2CCN1CCOCC1 [ACY-1035],Fold change /veh CAMK2N1 (11719241_x_at),0.84
